Experimental data reported in publication PMC7847937, “Search for Antimicrobial Activity Among Fifty-Two Natural and Synthetic Compounds Identifies Anthraquinone and Polyacetylene Classes That Inhibit Mycobacterium tuberculosis” (Frontiers in Microbiology, 2021).
Values after ≈ are worked out from the molar mass of the structure shown. Where two headings read alike, the source gives them in different places.

Columns and labels:
[1] = tested on: human monocytic THP-1 cell line; test: Cytotoxicity assay in THP-1 monocytes (CellTiter-Blue, 24 h); format: cell-based; conditions: for IC50: Homo sapiens; for toxicity (in words): compared to the other active compounds
THP-1 cells = conditions: cited from earlier work
[2] = tested on: Mycobacterium tuberculosis H37Rv; test: MIC determination by resazurin microtiter plate assay (REMA) with CellTiter-Blue; format: cell-based; conditions: for MIC: M. tuberculosis H37Rv, 7 days, two-fold dilutions 100 to 1.56 μg/mL, Gompertz fit; for antimycobacterial activity (in words): dose response, Figure 6
human monocyte cells = conditions: cited from earlier work
[3] = tested on: Mycobacterium tuberculosis H37Rv; test: Compound library screen against M. tuberculosis at 100 μg/mL (CellTiter-Blue viability); format: cell-based; conditions: library screen at 100 μg/mL, 7 days
AML12 hepatocytes = conditions: cited from earlier work
[4] = THP-1 cells, 24 h treatment, 200 to 1.56 μg/mL, read-out: IC50
[5] = Mycobacterium tuberculosis, H37RV, 168 h, read-out: MIC

Compound	IC50 [1, 4]	MIC [2, 5]	further results
CC(C)=CCc1c(O)ccc(C(=O)/C=C/c2ccc(O)cc2)c1O [Compound C1, Isobavachalcone]	45.9 µg/mL (≈ 141 µM)		cytotoxic concentration 50% (CC50) (THP-1 cells): 11.65 µg/mL
COC(=O)C1=C(N)Oc2cc(O)c3c(C)cc(=O)oc3c2C1c1ccc([N+](=O)[O-])cc1 (stereo not drawn) [Compound C10]	64.2 µg/mL (≈ 151 µM)	25 to 71 µg/mL (≈ 58.9 to 167 µM)	MIC [2]: 29.13 µg/mL (≈ 68.6 µM); toxicity (in words) [1]: low toxicity
COC(=O)/C(C#N)=C/C=C/c1ccccc1 [Compound C13]		≥ 100 µg/mL	antimycobacterial activity (in words) [2]: weak activity; IC50 ([1]; THP-1, 24 h): 95.9 µg/mL (≈ 450 µM); toxicity to human monocyte cells (in words) (human monocyte cells): moderately toxic
COC(=O)C1=C(N)Oc2cc(O)cc(O)c2C1c1ccc(Cl)cc1 (stereo not drawn) [Compound C14]	47.2 µg/mL (≈ 136 µM)	≥ 100 µg/mL	antimycobacterial activity (in words) [2]: weak antimycobacterial activity; toxicity to human monocyte cells (in words) (human monocyte cells): moderately toxic
COC(=O)C1=C(N)Oc2cc(O)cc(O)c2C1c1ccc(Br)cc1 (stereo not drawn) [Compound C15]		≥ 100 µg/mL	
COC(=O)C1=C(N)Oc2cc(O)cc(O)c2C1c1ccc([N+](=O)[O-])cc1 (stereo not drawn) [Compound C16]			anti-M. tuberculosis activity (in words) [3]: not active
CC1(C)C=Cc2c(ccc(C(=O)/C=C/c3ccc(O)cc3)c2O)O1 [Compound C21, 4-hydroxylonchocarpine]			anti-M. tuberculosis activity (in words) [3]: not mycobactericidal
COc1c(C=O)c(O)cc2c1C(=O)c1ccccc1C2=O [Compound C22, Damnacanthal]	21.4 µg/mL (≈ 75.9 µM)	< 20 µg/mL	MIC [2]: 13.07 µg/mL (≈ 46.3 µM); cytotoxic concentration 50% (CC50) (THP-1 cells): 8.87 µg/mL
CC1(C)C=Cc2cc3c(cc2O1)O[C@H]1c2ccc(O)cc2OC[C@@H]31 [Compound C23, Isoneorautenol]	44.3 µg/mL (≈ 137 µM)	25 to 71 µg/mL (≈ 77.6 to 220 µM)	MIC [2]: 49.22 µg/mL (≈ 153 µM); concentration up to which no cytotoxicity was shown (AML12 hepatocytes): > 123.46 µM
CC(C)=CCc1c(O)c(CC=C(C)C)c2c(c1O)C(=O)C[C@@H](c1ccc(O)c(O)c1)O2 [Compound C24, 6,8-diprenyleriodictyol]		≥ 100 µg/mL	
COc1c(C)c(O)cc2c1C(=O)c1ccccc1C2=O [Compound C25, rubiadin 1-methyl ether]			anti-M. tuberculosis activity (in words) [3]: no anti-M. tuberculosis activity
CCOC(=O)C1=C(C)NC(C)=C(C(=O)OCC)C1c1ccc([N+](=O)[O-])cc1 [Compound C36]		≥ 100 µg/mL	
CCOC(=O)C1=C(C)NC(C)=C(C(=O)OCC)C1c1ccc(O)c(OC)c1 [Compound C38]		≥ 100 µg/mL	
CCOC(=O)C1=C(C)NC(C)=C(C(=O)OCC)C1c1cc(OC)c(OC)c(OC)c1 [Compound C40]		≥ 100 µg/mL	
CCOC(=O)C1=C(C)NC(C)=C(C(=O)OCC)C1c1cc(OC)c(O)c(OC)c1 [Compound C41]		≥ 100 µg/mL	
CCOC(=O)C1=C(C)N(c2ccccc2)C(C)=C(C(=O)OCC)C1c1ccc(O)cc1 [Compound C45]		≥ 100 µg/mL	
CCOC(=O)C1=C(C)N(c2ccccc2)C(C)=C(C(=O)OCC)C1c1cc(OC)c(O)c(OC)c1 [Compound C49]		≥ 100 µg/mL	
CC#CC#CC#CCCCO [Compound C51, Deca-4,6,8-triyn-1-ol]	170 µg/mL (≈ 1170 µM)		toxicity (in words) [1]: low toxicity
OCCCC#CC#CC#CC#CCCCO [Compound C53, Tetradeca-4,6,8,10-tetrayne-1,14-diol]	17 µg/mL (≈ 79.3 µM)	< 20 µg/mL	MIC [2]: 17.88 µg/mL (≈ 83.4 µM); melting point: 116.5 to 117 °C
